From paper PMC6199744, “Development of Chemical Proteomics for the Folateome and Analysis of the Kinetoplastid Folateome” (ACS Infectious Diseases, 2018)
Read-outs that look alike come from different tables or passages of the source.

Tests used:
Type in all cases: binding
[1] = biological target: T1, HeLa cell extract proteins (Homo sapiens, UniProt P09622)
T1 construct: endogenous in cells; host or cells: HeLa cell extract
T1 sequence (P09622 36-509): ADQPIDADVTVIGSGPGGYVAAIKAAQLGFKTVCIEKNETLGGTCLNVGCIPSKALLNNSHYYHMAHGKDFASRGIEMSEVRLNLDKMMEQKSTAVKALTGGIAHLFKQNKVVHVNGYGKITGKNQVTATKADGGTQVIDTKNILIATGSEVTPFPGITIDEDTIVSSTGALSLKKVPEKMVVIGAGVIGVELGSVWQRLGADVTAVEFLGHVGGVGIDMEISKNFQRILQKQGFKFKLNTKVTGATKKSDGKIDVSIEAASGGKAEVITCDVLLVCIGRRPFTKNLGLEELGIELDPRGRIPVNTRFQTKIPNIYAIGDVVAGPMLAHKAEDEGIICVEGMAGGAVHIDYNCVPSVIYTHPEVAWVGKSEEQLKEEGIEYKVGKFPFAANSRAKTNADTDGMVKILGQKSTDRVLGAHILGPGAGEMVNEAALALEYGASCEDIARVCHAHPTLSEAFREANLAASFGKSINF

[2] = biological target: T2, HeLa cell extract proteins (Homo sapiens, UniProt P08579)
T2 construct: endogenous in cells; host or cells: HeLa cell extract
T2 sequence (P08579 whole entry): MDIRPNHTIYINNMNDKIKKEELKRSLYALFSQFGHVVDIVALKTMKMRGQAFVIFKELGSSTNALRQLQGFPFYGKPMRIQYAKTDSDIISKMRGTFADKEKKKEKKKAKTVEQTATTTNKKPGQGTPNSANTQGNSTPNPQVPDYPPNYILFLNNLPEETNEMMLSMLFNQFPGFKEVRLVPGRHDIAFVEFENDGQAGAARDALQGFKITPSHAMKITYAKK

[3] = biological target: T3, HeLa cell extract proteins (Homo sapiens, UniProt P50990)
T3 construct: endogenous in cells; host or cells: HeLa cell extract
T3 sequence (P50990 1-548): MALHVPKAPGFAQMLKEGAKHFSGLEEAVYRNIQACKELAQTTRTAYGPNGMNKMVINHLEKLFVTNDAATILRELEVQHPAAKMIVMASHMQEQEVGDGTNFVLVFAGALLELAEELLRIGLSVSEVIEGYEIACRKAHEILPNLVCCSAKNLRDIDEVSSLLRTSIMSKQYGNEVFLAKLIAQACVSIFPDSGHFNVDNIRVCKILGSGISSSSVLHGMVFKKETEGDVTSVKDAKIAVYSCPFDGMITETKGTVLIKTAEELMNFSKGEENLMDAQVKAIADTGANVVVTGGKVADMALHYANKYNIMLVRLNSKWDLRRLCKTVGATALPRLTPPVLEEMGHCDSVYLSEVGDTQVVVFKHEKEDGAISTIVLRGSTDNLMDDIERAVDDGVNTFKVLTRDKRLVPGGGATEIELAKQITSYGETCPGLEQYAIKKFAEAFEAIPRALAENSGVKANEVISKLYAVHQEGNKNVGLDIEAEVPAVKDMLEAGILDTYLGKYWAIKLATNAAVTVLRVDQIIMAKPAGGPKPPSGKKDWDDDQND

[4] = biological target: T4, HeLa cell extract proteins (Homo sapiens, UniProt P04183)
T4 construct: endogenous in cells; host or cells: HeLa cell extract
T4 sequence (P04183 1-234): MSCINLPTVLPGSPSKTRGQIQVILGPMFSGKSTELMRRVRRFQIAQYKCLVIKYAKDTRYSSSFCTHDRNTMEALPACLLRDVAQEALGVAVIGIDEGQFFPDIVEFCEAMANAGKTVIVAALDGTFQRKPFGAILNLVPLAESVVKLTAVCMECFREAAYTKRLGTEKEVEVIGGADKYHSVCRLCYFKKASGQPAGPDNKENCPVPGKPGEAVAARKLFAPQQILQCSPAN

[5] = biological target: T5, HeLa cell extract proteins (Homo sapiens, UniProt O75153)
T5 construct: endogenous in cells; host or cells: HeLa cell extract
T5 sequence (O75153 1-1309): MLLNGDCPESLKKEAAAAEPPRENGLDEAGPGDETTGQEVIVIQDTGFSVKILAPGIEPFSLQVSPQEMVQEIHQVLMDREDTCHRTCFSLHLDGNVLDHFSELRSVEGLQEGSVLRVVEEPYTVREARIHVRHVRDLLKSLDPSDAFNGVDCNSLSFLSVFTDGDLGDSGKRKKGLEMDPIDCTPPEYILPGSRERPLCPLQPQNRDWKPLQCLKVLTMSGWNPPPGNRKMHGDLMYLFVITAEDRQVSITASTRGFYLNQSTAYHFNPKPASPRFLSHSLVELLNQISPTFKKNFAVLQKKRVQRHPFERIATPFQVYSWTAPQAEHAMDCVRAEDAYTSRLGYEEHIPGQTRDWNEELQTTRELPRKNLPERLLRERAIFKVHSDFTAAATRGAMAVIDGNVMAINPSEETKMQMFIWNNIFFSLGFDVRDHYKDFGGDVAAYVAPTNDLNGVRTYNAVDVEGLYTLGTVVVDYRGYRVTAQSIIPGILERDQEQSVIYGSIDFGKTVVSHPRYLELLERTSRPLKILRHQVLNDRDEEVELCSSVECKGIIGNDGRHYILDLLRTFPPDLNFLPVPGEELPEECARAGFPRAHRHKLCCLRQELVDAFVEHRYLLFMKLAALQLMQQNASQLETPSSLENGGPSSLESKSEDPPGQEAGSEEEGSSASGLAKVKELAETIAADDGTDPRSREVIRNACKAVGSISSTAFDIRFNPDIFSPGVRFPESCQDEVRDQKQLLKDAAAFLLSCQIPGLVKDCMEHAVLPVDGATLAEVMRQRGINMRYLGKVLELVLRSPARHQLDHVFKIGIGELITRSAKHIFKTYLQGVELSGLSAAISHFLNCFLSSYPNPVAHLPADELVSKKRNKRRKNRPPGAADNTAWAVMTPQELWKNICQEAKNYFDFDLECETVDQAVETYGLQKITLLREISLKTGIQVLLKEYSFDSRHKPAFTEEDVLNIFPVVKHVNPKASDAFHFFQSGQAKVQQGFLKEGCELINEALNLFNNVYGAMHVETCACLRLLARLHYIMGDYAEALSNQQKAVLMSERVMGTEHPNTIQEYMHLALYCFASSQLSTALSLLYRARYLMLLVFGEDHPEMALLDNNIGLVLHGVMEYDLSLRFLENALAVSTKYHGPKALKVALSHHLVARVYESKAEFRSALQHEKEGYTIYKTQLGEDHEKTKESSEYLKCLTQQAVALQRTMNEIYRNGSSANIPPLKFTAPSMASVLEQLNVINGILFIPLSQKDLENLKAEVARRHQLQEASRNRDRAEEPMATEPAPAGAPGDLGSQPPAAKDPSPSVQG

[6] = biological target: T6, HeLa cell extract proteins (Homo sapiens, UniProt Q93074)
T6 construct: endogenous in cells; host or cells: HeLa cell extract
T6 sequence (Q93074 whole entry): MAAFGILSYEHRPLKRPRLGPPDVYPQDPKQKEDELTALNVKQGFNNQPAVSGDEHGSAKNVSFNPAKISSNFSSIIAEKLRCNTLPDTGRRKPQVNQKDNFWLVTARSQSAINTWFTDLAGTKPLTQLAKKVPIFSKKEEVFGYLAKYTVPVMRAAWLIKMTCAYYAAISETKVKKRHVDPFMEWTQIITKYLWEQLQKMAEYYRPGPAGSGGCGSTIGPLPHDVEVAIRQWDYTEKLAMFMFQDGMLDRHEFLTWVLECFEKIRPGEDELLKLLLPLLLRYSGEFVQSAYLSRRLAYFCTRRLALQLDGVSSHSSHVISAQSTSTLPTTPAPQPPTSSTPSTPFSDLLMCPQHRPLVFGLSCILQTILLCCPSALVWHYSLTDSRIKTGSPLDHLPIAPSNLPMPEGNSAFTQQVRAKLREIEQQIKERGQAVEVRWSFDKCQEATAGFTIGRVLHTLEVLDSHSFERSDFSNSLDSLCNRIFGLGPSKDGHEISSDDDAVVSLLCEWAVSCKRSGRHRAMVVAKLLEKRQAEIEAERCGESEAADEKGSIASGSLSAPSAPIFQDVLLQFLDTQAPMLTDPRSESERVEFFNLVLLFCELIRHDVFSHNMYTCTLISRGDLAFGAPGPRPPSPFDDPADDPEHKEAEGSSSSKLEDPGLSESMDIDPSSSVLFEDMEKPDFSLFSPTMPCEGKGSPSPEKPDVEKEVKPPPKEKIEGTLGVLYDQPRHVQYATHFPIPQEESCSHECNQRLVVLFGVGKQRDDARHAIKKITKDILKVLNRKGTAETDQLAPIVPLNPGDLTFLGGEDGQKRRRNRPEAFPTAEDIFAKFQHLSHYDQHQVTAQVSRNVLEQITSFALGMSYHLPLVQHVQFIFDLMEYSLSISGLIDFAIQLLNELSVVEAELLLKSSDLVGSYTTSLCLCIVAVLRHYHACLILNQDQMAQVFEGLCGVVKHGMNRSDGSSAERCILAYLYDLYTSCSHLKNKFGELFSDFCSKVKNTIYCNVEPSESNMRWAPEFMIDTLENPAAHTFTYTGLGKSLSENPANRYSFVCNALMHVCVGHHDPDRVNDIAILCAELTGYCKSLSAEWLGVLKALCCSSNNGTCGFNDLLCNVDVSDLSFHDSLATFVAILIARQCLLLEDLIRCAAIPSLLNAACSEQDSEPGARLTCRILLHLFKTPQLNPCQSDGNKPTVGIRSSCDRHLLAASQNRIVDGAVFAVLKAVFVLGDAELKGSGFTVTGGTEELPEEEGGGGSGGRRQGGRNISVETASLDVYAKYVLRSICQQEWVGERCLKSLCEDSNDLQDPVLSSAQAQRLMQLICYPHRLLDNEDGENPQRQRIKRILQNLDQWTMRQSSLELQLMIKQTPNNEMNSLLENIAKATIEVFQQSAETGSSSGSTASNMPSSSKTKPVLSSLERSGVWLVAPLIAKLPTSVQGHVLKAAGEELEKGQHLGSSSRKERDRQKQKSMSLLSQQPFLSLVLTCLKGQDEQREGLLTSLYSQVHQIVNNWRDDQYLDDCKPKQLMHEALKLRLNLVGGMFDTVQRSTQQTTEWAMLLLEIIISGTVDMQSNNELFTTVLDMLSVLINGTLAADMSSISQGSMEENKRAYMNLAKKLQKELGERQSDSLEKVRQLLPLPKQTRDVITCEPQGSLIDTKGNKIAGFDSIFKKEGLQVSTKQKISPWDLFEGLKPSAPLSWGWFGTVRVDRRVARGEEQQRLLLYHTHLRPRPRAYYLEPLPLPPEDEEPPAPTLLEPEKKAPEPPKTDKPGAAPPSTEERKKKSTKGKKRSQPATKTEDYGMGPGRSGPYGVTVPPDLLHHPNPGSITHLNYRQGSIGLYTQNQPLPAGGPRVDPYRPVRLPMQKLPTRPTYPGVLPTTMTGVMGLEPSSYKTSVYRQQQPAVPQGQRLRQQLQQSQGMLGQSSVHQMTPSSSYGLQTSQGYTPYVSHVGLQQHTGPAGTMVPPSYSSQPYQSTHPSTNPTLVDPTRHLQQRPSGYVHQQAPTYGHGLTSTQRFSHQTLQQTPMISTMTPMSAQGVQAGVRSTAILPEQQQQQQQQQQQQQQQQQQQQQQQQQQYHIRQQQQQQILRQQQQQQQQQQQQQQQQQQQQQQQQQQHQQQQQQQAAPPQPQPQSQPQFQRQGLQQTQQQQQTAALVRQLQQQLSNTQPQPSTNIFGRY

[7] = HeLa, protein TK1 (29 KDA PROTEIN)

Nc1nc2c(c(=O)[nH]1)N(C=O)C(CNc1ccc(C(=O)N[C@@H](CCC(=O)O)C(=O)O)cc1)CN2 (stereo partly drawn) [LEU, leucovorin]
fold changes relative to vehicle control ([1]; HeLa, captured protein DLD): 1.01 | fold changes relative to vehicle control ([2]; HeLa, protein SNRPB2): 1 | fold changes relative to vehicle control ([3]; HeLa, protein CCT8): 0.99 | fold changes relative to vehicle control [4, 7]: 0.97 | fold changes relative to vehicle control ([5]; protein KIAA0664, HeLa): 1.17 | fold changes relative to vehicle control ([6]; HeLa, protein MED12): 1.14

Nc1nc2[nH]cc(CCc3ccc(C(=O)N[C@@H](CCC(=O)O)C(=O)O)cc3)c2c(=O)[nH]1 [PTX, pemetrexed]
fold changes relative to vehicle control [1]: 0.96 | fold changes relative to vehicle control [2]: 0.98 | fold changes relative to vehicle control [3]: 1.02 | fold changes relative to vehicle control [4]: 0.93 | fold changes relative to vehicle control [5]: 1.07 | fold changes relative to vehicle control [6]: 1

CCCCCCOc1ccc(Cc2cnc(N)nc2N)cc1 [compound 1]
fold changes relative to vehicle control ([1]; HeLa, protein DLD): 0.96 | fold changes relative to vehicle control ([2]; HeLa, protein SNRPB2): 1.22 | fold changes relative to vehicle control ([3]; protein CCT8, HeLa): 1.16 | fold changes relative to vehicle control ([4]; protein TK1, HeLa): 0.96 | fold changes relative to vehicle control ([5]; HeLa, protein KIAA0664): 1.17 | fold changes relative to vehicle control ([6]; captured protein MED12, HeLa): 1.01

CCCCCCOc1cccc(Cc2cnc(N)nc2N)c1 [compound 2]
fold changes relative to vehicle control ([1]; HeLa, protein DLD): 0.42 | fold changes relative to vehicle control ([2]; HeLa, protein SNRPB2): 1.43 | fold changes relative to vehicle control ([3]; protein CCT8, HeLa): 1.92 | fold changes relative to vehicle control ([4]; protein TK1, HeLa): 1.16 | fold changes relative to vehicle control ([5]; HeLa, protein KIAA0664): 1.25 | fold changes relative to vehicle control ([6]; captured protein MED12, HeLa): 0.94

Nc1nc2cccc(-c3ccccc3)c2n1Cc1ccc(Cl)c(Cl)c1 [compound 3]
fold changes relative to vehicle control ([1]; HeLa, protein DLD): 1.01 | fold changes relative to vehicle control ([2]; HeLa, protein SNRPB2): 0.76 | fold changes relative to vehicle control ([3]; protein CCT8, HeLa): 0.96 | fold changes relative to vehicle control ([4]; protein TK1, HeLa): 1.16 | fold changes relative to vehicle control ([5]; HeLa, protein KIAA0664): 1.11 | fold changes relative to vehicle control ([6]; captured protein MED12, HeLa): 1.14

NCCOCCOCC(=O)Nc1nc2ncc(CNc3ccc(C(=O)NC(CCC(=O)O)C(=O)O)cc3)nc2c(=O)[nH]1 (stereo not drawn) [compound 6]
fold changes relative to vehicle control ([1]; HeLa, captured protein DLD): 0.99 | fold changes relative to vehicle control ([2]; HeLa, protein SNRPB2): 0.93 | fold changes relative to vehicle control ([3]; HeLa, protein CCT8): 1.15 | fold changes relative to vehicle control [4, 7]: 1.06 | fold changes relative to vehicle control ([5]; protein KIAA0664, HeLa): 1.01 | fold changes relative to vehicle control ([6]; HeLa, protein MED12): 1.21

NCCCNc1ccc(C(=O)NC(CCC(=O)O)C(=O)O)cc1 (stereo not drawn) [compound 7]
fold changes relative to vehicle control ([1]; HeLa, captured protein DLD): 1.03 | fold changes relative to vehicle control ([2]; HeLa, protein SNRPB2): 0.77 | fold changes relative to vehicle control ([3]; HeLa, protein CCT8): 0.92 | fold changes relative to vehicle control [4, 7]: 1.12 | fold changes relative to vehicle control ([5]; protein KIAA0664, HeLa): 1.12 | fold changes relative to vehicle control ([6]; HeLa, protein MED12): 1.21
